Here are results for 22 molecules from ChEMBL document CHEMBL4184317, “Discovery of Tetrahydroquinoxalines as Bromodomain and Extra-Terminal Domain (BET) Inhibitors with Selectivity for the Second Bromodomain” (J Med Chem, 2018).

In the first data set the test system is PBMC. The experiment in a line: cells. To be noted: Homo sapiens, read-out: pIC50 (converted).
Description: Antiinflammatory activity in human PBMC assessed as inhibition of LPS-induced MCP1 release preincubated for 30 mins followed by LPS challenge measured after 24 hrs by immunoassay
Take `CC(=O)N1CCN(Cc2cccc(C)c2)c2ccccc21`: the IC50 is 3160 nM.
Same read-out and setting: next, `CC(=O)N1c2ccccc2N(Cc2ccccc2CC(=O)O)CC1C1CC1` (centres undefined): 1260 nM.
In the case of `CC(=O)N1c2ccccc2N(Cc2ccccc2)CC1C` (centres undefined), the IC50 is 1260 nM.
Consider `CC(=O)N1c2ccccc2N(Cc2ccccc2O)CC1C1CC1` (centres undefined), for which the IC50 is 1260 nM.
The same measure, in the same setting: next, `CC(=O)N1c2ccccc2N(Cc2ccccc2N(C)C)CC1C1CC1` (centres undefined): 1580 nM.
Same read-out and setting: next, `COc1ccccc1CN1CC(C2CC2)N(C(C)=O)c2ccccc21` (centres undefined): 2000 nM; `CC(=O)N1c2ccccc2N(Cc2ccccc2C(=O)O)CC1C1CC1` (centres undefined): 2510 nM.
Regarding `CC(=O)N1c2ccccc2N(Cc2ccccc2)CC1C1CC1` (centres undefined), the IC50 was 3160 nM.
Still for that read-out and setting: next, `CC(=O)N1c2ccccc2N(Cc2ccc(Cl)cc2C(=O)O)CC1C1CC1` (centres undefined): 12600 nM; `CC(=O)N1c2ccccc2N(Cc2cccc(CO)c2)CC1C1CC1` (centres undefined): 631 nM.

Test system in another data set: not listed separately
The experiment in a line: physchem. To be noted: buffer, pH 7.4.
Description: Chromatographic hydrophobicity index, log D of the compound at pH 7.4 by HPLC method
`CCC1CN(Cc2ccccc2)c2cc(C3=CCNCC3)ccc2N1C(C)=O` (centres undefined) returned a chromatographic logD of 2.8.

The same data set, now with this note: buffer, pH 7.4, logD.
On to `CCC1CN(Cc2ccccc2)c2cc(-c3ccc(C(N)=O)nc3)ccc2N1C(C)=O` (centres undefined), for which the chromatographic logD stood at 4.5.
Still for that read-out and setting: the figure for `COc1cc(OC)c2c(=O)[nH]c(-c3cc(C)c(OCCO)c(C)c3)nc2c1` [APABETALONE] is 2.9.
Same read-out and setting: next, `CC(=O)N1CCN(Cc2cccc(C)c2)c2ccccc21`: 5.9.
On the same count and under the same terms, next, `CC(=O)N1c2ccccc2N(Cc2ccccc2C(=O)O)CC1C` (centres undefined): 1.5.
`CC(=O)N1c2ccccc2N(Cc2ccccc2OCCO)CC1C1CC1` (centres undefined) yielded a chromatographic logD of 4.9.
The same measure, in the same setting: the figure for `CC(=O)N1CCN(Cc2ccccc2)c2ccccc21` is 5.6; for `CCC1CN(Cc2ccccc2)c2cc(-c3cncnc3)ccc2N1C(C)=O` (centres undefined) it is 4.9; for `CCC1CN(Cc2ccccc2)c2cc(Br)ccc2N1C(C)=O` (centres undefined) it is 7.4.
Same read-out and setting: the figure for `CCC1CN(Cc2ccccc2)c2cc(-c3cnc(C#N)nc3)ccc2N1C(C)=O` (centres undefined) is 6.3.
Same read-out and setting: next, `CCC1CN(Cc2ccccc2)c2cc(-c3cnc(C)cn3)ccc2N1C(C)=O` (centres undefined): 6.1; `CCC1CN(Cc2cccc(C)c2)c2ccccc2N1C(C)=O` (centres undefined): 7.1.
In the case of `CC(=O)N1c2ccccc2N(Cc2cccc(C)c2)CC1C1CC1` (centres undefined), the chromatographic logD amounted to 7.2.
The same measure, in the same setting: next, `CC(=O)N1c2ccccc2N(Cc2ccccc2CC(=O)O)CC1C1CC1` (centres undefined): 2.4.
On the same count and under the same terms, next, `CC(=O)N1c2ccccc2N(Cc2ccccc2)CC1C` (centres undefined): 5.9; `CC(=O)N1c2ccccc2N(Cc2ccccc2O)CC1C1CC1` (centres undefined): 5.2; `CC(=O)N1c2ccccc2N(Cc2ccccc2N(C)C)CC1C1CC1` (centres undefined): 7.5.
The same measure, in the same setting: next, `COc1ccccc1CN1CC(C2CC2)N(C(C)=O)c2ccccc21` (centres undefined): 6.9; `CC(=O)N1c2ccccc2N(Cc2ccccc2C(=O)O)CC1C1CC1` (centres undefined): 2.2; `CC(=O)N1c2ccccc2N(Cc2ccccc2)CC1C1CC1` (centres undefined): 6.7.
Regarding `CC(=O)N1c2ccccc2N(Cc2ccc(Cl)cc2C(=O)O)CC1C1CC1` (centres undefined), the chromatographic logD was found to be 2.9.
The same measure, in the same setting: the figure for `CC(=O)N1c2ccccc2N(Cc2cccc(CO)c2)CC1C1CC1` (centres undefined) is 4.7.

The next data set deals with Bromodomain-containing protein 4 (Homo sapiens, UniProt O60885, Y390A).
Experiment: not given
Details: not given
Take `CCC1CN(Cc2ccccc2)c2cc(-c3ccc(C(N)=O)nc3)ccc2N1C(C)=O` (centres undefined): the IC50 is 631 nM.
In the case of `CC(=O)N1CCN(Cc2cccc(C)c2)c2ccccc21`, the IC50 is 15800 nM.
Consider `CC(=O)N1c2ccccc2N(Cc2ccccc2C(=O)O)CC1C` (centres undefined), for which the IC50 was 39800 nM.
As for `CC(=O)N1c2ccccc2N(Cc2ccccc2OCCO)CC1C1CC1` (centres undefined), the IC50 is 25100 nM.
The molecule `CC(=O)N1CCN(Cc2ccccc2)c2ccccc21` showed an IC50 of 10000 nM.
On the same count and under the same terms, next, `CCC1CN(Cc2ccccc2)c2cc(-c3cncnc3)ccc2N1C(C)=O` (centres undefined): 3160 nM.
On the same count and under the same terms, next, `CCC1CN(Cc2ccccc2)c2cc(Br)ccc2N1C(C)=O` (centres undefined): 2510 nM; `CCC1CN(Cc2ccccc2)c2cc(-c3cnc(C#N)nc3)ccc2N1C(C)=O` (centres undefined): 251 nM.
Still for that read-out and setting: next, `CCC1CN(Cc2ccccc2)c2cc(-c3cnc(C)cn3)ccc2N1C(C)=O` (centres undefined): 2000 nM; `CCC1CN(Cc2cccc(C)c2)c2ccccc2N1C(C)=O` (centres undefined): 12600 nM; `CC(=O)N1c2ccccc2N(Cc2cccc(C)c2)CC1C1CC1` (centres undefined): 25100 nM.
`CC(=O)N1c2ccccc2N(Cc2ccccc2CC(=O)O)CC1C1CC1` (centres undefined): the IC50 was above 50100 nM.
Still for that read-out and setting: next, `CC(=O)N1c2ccccc2N(Cc2ccccc2)CC1C` (centres undefined): 15800 nM.
With `CC(=O)N1c2ccccc2N(Cc2ccccc2O)CC1C1CC1` (centres undefined), the IC50 is 20000 nM.
Same read-out and setting: the figure for `CC(=O)N1c2ccccc2N(Cc2ccccc2N(C)C)CC1C1CC1` (centres undefined) is 20000 nM.
On the same count and under the same terms, the figure for `COc1ccccc1CN1CC(C2CC2)N(C(C)=O)c2ccccc21` (centres undefined) is 15800 nM.
On the same count and under the same terms, the figure for `CC(=O)N1c2ccccc2N(Cc2ccccc2C(=O)O)CC1C1CC1` (centres undefined) is above 50100 nM; for `CCC1CN(Cc2ccccc2)c2cc(C3=CCNCC3)ccc2N1C(C)=O` (centres undefined) it is 3160 nM; for `CC(=O)N1c2ccccc2N(Cc2ccccc2)CC1C1CC1` (centres undefined) it is 20000 nM.
`CC(=O)N1c2ccccc2N(Cc2ccc(Cl)cc2C(=O)O)CC1C1CC1` (centres undefined) had an IC50 of 39800 nM.
On the same count and under the same terms, the figure for `CC(=O)N1c2ccccc2N(Cc2cccc(CO)c2)CC1C1CC1` (centres undefined) is 25100 nM.

The target of a further data set is Bromodomain-containing protein 4 (Homo sapiens, UniProt O60885, Y97A).
Experiment: not given
Details: not given
For `CCC1CN(Cc2ccccc2)c2cc(-c3ccc(C(N)=O)nc3)ccc2N1C(C)=O` (centres undefined), the IC50 was 63.1 nM.
With `CC(=O)N1CCN(Cc2cccc(C)c2)c2ccccc21`, the IC50 was 501 nM.
In turn, `CC(=O)N1c2ccccc2N(Cc2ccccc2C(=O)O)CC1C` (centres undefined) gave an IC50 of 1580 nM.
`CC(=O)N1c2ccccc2N(Cc2ccccc2OCCO)CC1C1CC1` (centres undefined) gave an IC50 of 316 nM.
Still for that read-out and setting: next, `CC(=O)N1CCN(Cc2ccccc2)c2ccccc21`: 2510 nM; `CCC1CN(Cc2ccccc2)c2cc(-c3cncnc3)ccc2N1C(C)=O` (centres undefined): 158 nM; `CCC1CN(Cc2ccccc2)c2cc(Br)ccc2N1C(C)=O` (centres undefined): 316 nM.
The same measure, in the same setting: next, `CCC1CN(Cc2ccccc2)c2cc(-c3cnc(C#N)nc3)ccc2N1C(C)=O` (centres undefined): 100 nM.
Turning to `CCC1CN(Cc2ccccc2)c2cc(-c3cnc(C)cn3)ccc2N1C(C)=O` (centres undefined), the IC50 was 126 nM.
`CCC1CN(Cc2cccc(C)c2)c2ccccc2N1C(C)=O` (centres undefined) gave an IC50 of 794 nM.
On the same count and under the same terms, next, `CC(=O)N1c2ccccc2N(Cc2cccc(C)c2)CC1C1CC1` (centres undefined): 794 nM; `CC(=O)N1c2ccccc2N(Cc2ccccc2CC(=O)O)CC1C1CC1` (centres undefined): 1000 nM; `CC(=O)N1c2ccccc2N(Cc2ccccc2)CC1C` (centres undefined): 501 nM.
As to `CC(=O)N1c2ccccc2N(Cc2ccccc2O)CC1C1CC1` (centres undefined), the IC50 is 501 nM.
On the same count and under the same terms, next, `CC(=O)N1c2ccccc2N(Cc2ccccc2N(C)C)CC1C1CC1` (centres undefined): 501 nM.
`COc1ccccc1CN1CC(C2CC2)N(C(C)=O)c2ccccc21` (centres undefined) had an IC50 of 398 nM.
On the same count and under the same terms, the figure for `CC(=O)N1c2ccccc2N(Cc2ccccc2C(=O)O)CC1C1CC1` (centres undefined) is 794 nM; for `CCC1CN(Cc2ccccc2)c2cc(C3=CCNCC3)ccc2N1C(C)=O` (centres undefined) it is 158 nM.
`CC(=O)N1c2ccccc2N(Cc2ccccc2)CC1C1CC1` (centres undefined) showed an IC50 of 631 nM.
In turn, `CC(=O)N1c2ccccc2N(Cc2ccc(Cl)cc2C(=O)O)CC1C1CC1` (centres undefined) gave an IC50 of 1260 nM.
`CC(=O)N1c2ccccc2N(Cc2cccc(CO)c2)CC1C1CC1` (centres undefined) showed an IC50 of 794 nM.
